Data as given in patent US7910741B2, “Nitrogen-containing heterocyclic derivatives and drugs containing the same as the active ingredient” (Ono Pharmaceutical Co., Ltd., priority 2003, dated 2011).
Where a name gives a salt, the structure may show the parent alone.

Experiments:
human CCR5 [1] = biological target: T1, human CCR5 (Homo sapiens, UniProt P51681); experiment: Migration test of human CCR5 expressing cell (hCCR5-Ba/F3 cell) against RANTES; type: cell-based
T1 construct: expressed in transfected cells; host or cells: Ba/F3
Description: Migration test of human CCR5 expressing cell (hCCR5-Ba/F3 cell):
The isolation was carried out according to the method of the isolation of human CCR5 gene as described in the above Example 1.
Ba/F3 cells were statically cultured by using RMMI-1640 medium (Gibco BRL) containing antibiotics (Antibiotic-Antimycotic) (final concentration: penicillin G sodium (100 U/mL), streptomycin sulfate (100 μg/mL), amphotericin B (0.25 μg/mL)) (Gibco BRL), fetal bovine serum (FBS) (10%), 2-mercaptoethanol (55 μM) and mouse interleukin-3 (IL-3) (5 ng/mL) (Pepro Tech, Inc) in a carbon dioxide incubator (temperature: 37° C., CO2 concentration: 5%, humidity: 95%). […]
The human CCR5 expression level in the clone obtained by the method described in the above (1-C) was detected with FAC Sort (trade name, Becton, Dickinson) by detecting the cells with a fluorescence isothiocyanate (FITC)-labeled anti-human CCR5 antibody (BD Pharmingen) and analyzed. […]
Influence of a test compound on the migration ability of the human CCR5 expressing Ba/F3 cell against RANTES, MIP-1α or […] was examined. […] The cells on the microplate were suspended in 100 μl of a phosphate buffer (PBS), and 1/10 portion thereof was further diluted with 90 μl of PBS, moved on a white plate for fluorescence assay, and used as an assay sample for migrated cell numbers (final: 100 μl/well). […]

human CCR5 [2] = biological target: T1, human CCR5; experiment: Inhibition test on the binding of RANTES to CCR5 (RANTES-induced transient increase of Ca ion in CCR5/CHO cells); type: cell-based; conditions: inhibition of RANTES (10 nM)-induced Ca2+ transient increase; CCR5/CHO cell
Description: Inhibition test on the binding of RANTES to CCR5:
(1) Isolation of Human CCR5 Gene
Human placental cDNA was prepared using Marathon cDNA amplification kit (Clontech). PCR primers hCCR5Xbal-F1:
Using the human placental cDNA as the template and using Ex Taq (Takara), PCR reaction (2 minutes at 95° C.→(30 seconds at 95° C., 45 seconds at 60° C., 1 minute at 72° C.)×35 times) was carried out. The thus amplified PCR product was subjected to a 1% agarose gel electrophoresis, purified using QIAquick Gel Extraction Kit (QUIAGEN) and then digested with a restriction enzyme XbaI. The digested fragments were ligated to an expression vector pEF-BOS-bsr using DNA Ligation Kit Ver. 2 (Takara) and transformed into Escherichia coli DH5a. […]
The thus established human CCR5 stably over-expressing CHO cell (CCR5/CHO cell) was suspended in Ham's F-12 medium containing FBS (10%) and seeded at a density of […] into a 96 well plate. […] Transient increase in the intracellular Ca^2+ concentration induced by the human RANTES was measured using a Ca^2+ detector for 96 well use (Hamamatsu Photonics), and inhibition ratio (%) of the test compound was calculated by the following calculation formula. Inhibition ratio=(Ec−Ea)/Ec×100 • Ec: measured value of Ca^2+ transient increase by RANTES • Ea: measured value of Ca^2+ transient increase by RANTES when a test compound was added.

T1 sequence (P51681 whole entry): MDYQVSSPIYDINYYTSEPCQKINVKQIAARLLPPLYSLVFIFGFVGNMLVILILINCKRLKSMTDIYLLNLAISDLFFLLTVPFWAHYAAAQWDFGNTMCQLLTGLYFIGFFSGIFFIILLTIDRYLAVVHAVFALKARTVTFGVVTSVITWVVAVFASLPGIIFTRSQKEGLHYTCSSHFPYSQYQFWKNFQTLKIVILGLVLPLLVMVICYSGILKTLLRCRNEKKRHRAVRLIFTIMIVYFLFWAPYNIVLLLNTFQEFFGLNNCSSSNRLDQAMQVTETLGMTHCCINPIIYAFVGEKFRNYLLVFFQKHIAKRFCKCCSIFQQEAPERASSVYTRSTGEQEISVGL

Compound	cell migration inhibition ratio (human CCR5 [1]; concentration 10 μM) [%]	cell migration inhibition ratio (human CCR5 [1]; concentration 30 μM) [%]	IC50 (human CCR5 [2]) [nM]
CCCCN(C(=O)Nc1ccc(F)cc1F)C1CCN(Cc2ccc(Oc3ccc(NS(C)(=O)=O)cc3)cc2)CC1.Cl [Example 23(126), N-[4-(4-{[4-(butyl{[(2,4-difluorophenyl)amino]carbonyl}amino)-1-piperidinyl]methyl}phenoxy)phenyl]methanesulfonamide hydrochloride]	42	77	–
CCCCN(C(=O)C1CCCCC1)C1CCN(Cc2ccc(Oc3ccc(NS(C)(=O)=O)cc3)cc2)CC1 [Example 5(2), N-butyl-N-[1-(4-{4-[(methylsulfonyl)amino]phenoxy}benzyl)piperidin-4-yl]cyclohexanecarboxamide hydrochloride]	–	–	77
